Measurements reported in US20060069132A1, “Azolecarboxamide herbicides” (priority 2004, published 2006).

Assays:
lambsquarters = assay: Test B pre-/postemergence herbicide test; format: in vivo, Chenopodium album
Procedure, shortened: (§1)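 Evaluation is visual, comparing treated with control plants on a scale where 0 means no effect and 100 means full control. Treatments were preemergence, or postemergence on seedlings 2–18 cm tall, and held 13–15 days in the greenhouse.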

barnyardgrass [1] = assay: Test B flooded paddy test; format: in vivo, Echinochloa crus-galli; details: 1000 g ai/ha, visual rating, scale 0 to 100 (0 no effect, 100 complete control), 13 to 15 days
Procedure, shortened: (§2)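 Plants grow to 1- to 4-leaf stage (2–18 cm) for postemergence spraying, or to 2-leaf stage for the paddy test. Formulated compound is applied. Greenhouse holding lasts 13–15 days. Response is scored visually relative to controls, 0 no effect to 100 complete control; a dash means no result.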

[2] = test system: small flower umbrella sedge; assay: Test B flooded paddy test; format: in vivo, Cyperus difformis; details: 1000 g ai/ha, visual rating, scale 0 to 100 (0 no effect, 100 complete control), 13 to 15 days
Procedure, shortened: as §2

cocklebur = assay: Test B pre-/postemergence herbicide test; format: in vivo, Xanthium strumarium
Procedure, shortened: (§3)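 Species tested were Echinochloa crus-galli, Ipomoea coccinea, Xanthium strumarium and Oryza sativa, treated both before emergence and at the 1- to 4-leaf stage; rice and barnyardgrass were also tested under flooding at 2 leaves. Greenhouse incubation lasted 13–15 days before visual 0–100 scoring.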

wheat = assay: Test B postemergence herbicide test; format: in vivo, Triticum aestivum; design: key to Wheat plant response rating: 0 = no effect, 100 = complete control; details: scale 0 (no effect) to 100 (complete control)
Procedure, shortened: (§4)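 After treating 2-leaf paddy plants or 2–18 cm postemergence plants (1 to 4 leaves) with formulated chemical, researchers kept them in a greenhouse for 13–15 days. Effects were judged visually versus controls: 0 indicates none, 100 total control.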

morningglory [3] = assay: Test A pre-/postemergence herbicide test; format: in vivo, Ipomoea spp.
Procedure, shortened: (§5)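 Visual injury scores on a 0–100 scale (100 = complete control) taken about ten days post-treatment in greenhouse against untreated controls; dash means no result. Treatments: preemergence soil spray and postemergence spray to runoff on one- to two-leaf plants 2 to 10 cm tall, surfactant-containing formulation.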

corn = assay: Test B pre-/postemergence herbicide test; format: in vivo, Zea mays
Procedure, shortened: as §1

morningglory [4] = assay: Test B pre-/postemergence herbicide test; format: in vivo, Ipomoea coccinea
Procedure, shortened: as §3

barnyardgrass [5] = assay: Test A pre-/postemergence herbicide test; format: in vivo, Echinochloa crus-galli
Procedure, shortened: as §5

ducksalad = assay: Test B flooded paddy test; format: in vivo, Heteranthera limosa; details: 1000 g ai/ha, visual rating, scale 0 to 100 (0 no effect, 100 complete control), 13 to 15 days
Procedure, shortened: as §2

giant foxtail [6] = assay: Test A pre-/postemergence herbicide test; format: in vivo, Setaria faberi
Procedure, shortened: as §5

giant foxtail [7] = assay: Test B pre-/postemergence herbicide test; format: in vivo, Setaria faberi
Procedure, shortened: as §1

rice = assay: Test B flooded paddy test; format: in vivo, Oryza sativa; details: 1000 g ai/ha, visual rating, scale 0 to 100 (0 no effect, 100 complete control), 13 to 15 days
Procedure, shortened: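 Each value is a visual 0–100 response rating taken against controls 13 to 15 days after treatment in the greenhouse. Plants received formulated chemical postemergence at the 1- to 4-leaf stage or, in flooded paddy, at the 2-leaf stage.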

large crabgrass [8] = assay: Test A pre-/postemergence herbicide test; format: in vivo, Digitaria sanguinalis
Procedure, shortened: as §5

barnyardgrass [9] = assay: Test B pre-/postemergence herbicide test; format: in vivo, Echinochloa crus-galli
Procedure, shortened: as §3

velvetleaf [10] = assay: Test A pre-/postemergence herbicide test; format: in vivo, Abutilon theophrasti
Procedure, shortened: as §5

Surinam grass = assay: Test B pre-/postemergence herbicide test; format: in vivo, Urochloa decumbens
Procedure, shortened: as §1

wild oat = assay: Test B postemergence herbicide test; format: in vivo, Avena fatua; details: scale 0 (no effect) to 100 (complete control)
Procedure, shortened: as §4

pigweed = assay: Test B pre-/postemergence herbicide test; format: in vivo, Amaranthus retroflexus
Procedure, shortened: as §1

redroot pigweed = assay: Test A pre-/postemergence herbicide test; format: in vivo, Amaranthus retroflexus
Procedure, shortened: as §5

large crabgrass [11] = assay: Test B pre-/postemergence herbicide test; format: in vivo, Digitaria sanguinalis
Procedure, shortened: as §1

blackgrass = assay: Test B postemergence herbicide test; format: in vivo, Alopecurus myosuroides; details: scale 0 (no effect) to 100 (complete control)
Procedure, shortened: as §2

velvetleaf [12] = assay: Test B pre-/postemergence herbicide test; format: in vivo, Abutilon theophrasti
Procedure, shortened: as §1

[13] = 500 g ai/ha, visual rating 0-100, 0 no effect, 100 complete control, preemergence
[14] = Postemergence, 500 g ai/ha, visual rating after 13 to 15 days, scale 0 (no effect) to 100 (complete control)
[15] = postemergence, 125 g ai/ha, visual rating, scale 0 (no effect) to 100 (complete control)
[16] = preemergence, 125 g ai/ha, 0 to 100 scale, 0 is no effect, 100 is complete control
[17] = Postemergence, 500 g ai/ha, visual rating after 13 to 15 days
[18] = postemergence, 125 g ai/ha, visual rating
[19] = Postemergence, 500 g ai/ha, 0 to 100 scale, 0 no effect, 100 complete control
[20] = Postemergence, 2000 g ai/ha, 0 to 100 scale, 0 no effect, 100 complete control
[21] = Preemergence, 500 g ai/ha, visual rating, 0 to 100 scale (0 no effect, 100 complete control)
[22] = Preemergence, 2000 g ai/ha, visual rating, 0 to 100 scale (0 no effect, 100 complete control)

## CC(=NO)c1cccc(NC(=O)c2cc(C(C)(C)C)nn2C)c1 [Compound 107]
lambsquarters; [13]
  Plant response rating, Lambsquarters: 30
lambsquarters; [14]
  Plant response rating, Lambsquarters: 20
lambsquarters; [15]
  Lambsquarters plant response rating: 10
lambsquarters; [16]
  Plant response rating, Lambsquarters: 0
Barnyardgrass [1]
  Barnyardgrass plant response rating: 0
[2]
  Sedge, Umbrella plant response rating: 60
cocklebur; [13]
  Plant response rating, Cocklebur: 0
cocklebur; [14]
  Plant response rating, Cocklebur: 0
cocklebur; [15]
  Cocklebur plant response rating: 0
cocklebur; [16]
  Plant response rating, Cocklebur: 0
wheat; [17]
  Plant response rating, Wheat: 0
wheat; [18]
  Wheat plant response rating: 0
Morningglory [3]; [19]
  Morningglory plant response rating: 30
Morningglory [3]; [20]
  Plant response rating, Morningglory: 40
Morningglory [3]; [21]
  Morningglory plant response rating: 95
Morningglory [3]; [22]
  Morningglory plant response rating: 100
corn; [13]
  Plant response rating, Corn: 0
corn; [14]
  Plant response rating, Corn: 0
corn; [15]
  Corn plant response rating: 0
corn; [16]
  Plant response rating, Corn: 0
Morningglory [4]; [13]
  Plant response rating, Morningglory: 10
Morningglory [4]; [14]
  Plant response rating, Morningglory: 0
Morningglory [4]; [15]
  Morningglory plant response rating: 0
Morningglory [4]; [16]
  Plant response rating, Morningglory: 0
Barnyardgrass [5]; [19]
  Barnyardgrass plant response rating: 20
Barnyardgrass [5]; [20]
  Plant response rating, Barnyardgrass: 55
Barnyardgrass [5]; [21]
  Barnyardgrass plant response rating: 0
Barnyardgrass [5]; [22]
  Barnyardgrass plant response rating: 35
ducksalad
  Ducksalad plant response rating: 60
Giant foxtail [6]; [19]
  Foxtail, Giant plant response rating: 20
Giant foxtail [6]; [20]
  Plant response rating, Foxtail, Giant: 35
Giant foxtail [6]; [21]
  Foxtail, Giant plant response rating: 10
Giant foxtail [6]; [22]
  Foxtail, Giant plant response rating: 80
Giant foxtail [7]; [13]
  Plant response rating, Foxtail, Giant: 0
Giant foxtail [7]; [14]
  Plant response rating, Foxtail, Giant: 0
Giant foxtail [7]; [15]
  Foxtail, Giant plant response rating: 0
Giant foxtail [7]; [16]
  Plant response rating, Foxtail, Giant: 0
rice
  Rice plant response rating: 0
Large crabgrass [8]; [19]
  Crabgrass, Large plant response rating: 25
Large crabgrass [8]; [20]
  Plant response rating, Crabgrass, Large: 40
Large crabgrass [8]; [21]
  Crabgrass, Large plant response rating: 65
Large crabgrass [8]; [22]
  Crabgrass, Large plant response rating: 90
Barnyardgrass [9]; [13]
  Plant response rating, Barnyardgrass: 0
Barnyardgrass [9]; [14]
  Plant response rating, Barnyardgrass: 0
Barnyardgrass [9]; [15]
  Barnyardgrass plant response rating: 0
Barnyardgrass [9]; [16]
  Plant response rating, Barnyardgrass: 0
Velvetleaf [10]; [19]
  Velvetleaf plant response rating: 0
Velvetleaf [10]; [20]
  Plant response rating, Velvetleaf: 0
Velvetleaf [10]; [21]
  Velvetleaf plant response rating: 0
Velvetleaf [10]; [22]
  Velvetleaf plant response rating: 0
Surinam grass; [13]
  Plant response rating, Surinam Grass: 10
Surinam grass; [14]
  Plant response rating, Surinam Grass: 10
Surinam grass; [15]
  Surinam Grass plant response rating: 10
Surinam grass; [16]
  Plant response rating, Surinam Grass: 0
Wild oat; [17]
  Plant response rating, Oat, Wild: 0
Wild oat; [18]
  Oat, Wild plant response rating: 0
pigweed; [13]
  Plant response rating, Pigweed: 0
pigweed; [14]
  Plant response rating, Pigweed: 10
pigweed; [15]
  Pigweed plant response rating: 0
pigweed; [16]
  Plant response rating, Pigweed: 0
Redroot pigweed; [19]
  Pigweed plant response rating: 95
Redroot pigweed; [20]
  Plant response rating, Pigweed: 100
Redroot pigweed; [21]
  Pigweed plant response rating: 35
Redroot pigweed; [22]
  Pigweed plant response rating: 95
Large crabgrass [11]; [13]
  Plant response rating, Crabgrass, Large: 10
Large crabgrass [11]; [14]
  Plant response rating, Crabgrass, Large: 0
Large crabgrass [11]; [15]
  Crabgrass, Large plant response rating: 0
Large crabgrass [11]; [16]
  Plant response rating, Crabgrass, Large: 0
blackgrass; [17]
  Plant response rating, Blackgrass: 0
blackgrass; [18]
  Blackgrass plant response rating: 0
Velvetleaf [12]; [13]
  Plant response rating, Velvetleaf: 0
Velvetleaf [12]; [14]
  Plant response rating, Velvetleaf: 0
Velvetleaf [12]; [15]
  Velvetleaf plant response rating: 0
Velvetleaf [12]; [16]
  Plant response rating, Velvetleaf: 0
